Test results: patent US20260355165A1, “2,3,4,9-TETRAHYDRO-1H-PYRIDO[3,4-B]INDOLE DERIVATIVES AS ESTROGEN RECEPTOR MODULATORS FOR THE TREATMENT OF CANCER” (Olema Pharmaceuticals, Inc., priority 2022, published 2026)

target: T1, estrogen receptor (Homo sapiens, UniProt P03372); experiment: AP assay (alkaline phosphatase activity in ECC-1 cells), agonist mode (absence of E2) and antagonist mode (presence of 500 pM E2); type: cell-based; settings: 3 days, AP activity normalized to 500 pM E2 alone, agonist and antagonist mode combined
T1 construct: endogenous in cells; host or cells: ECC-1 cells
T1 sequence (P03372 1-595): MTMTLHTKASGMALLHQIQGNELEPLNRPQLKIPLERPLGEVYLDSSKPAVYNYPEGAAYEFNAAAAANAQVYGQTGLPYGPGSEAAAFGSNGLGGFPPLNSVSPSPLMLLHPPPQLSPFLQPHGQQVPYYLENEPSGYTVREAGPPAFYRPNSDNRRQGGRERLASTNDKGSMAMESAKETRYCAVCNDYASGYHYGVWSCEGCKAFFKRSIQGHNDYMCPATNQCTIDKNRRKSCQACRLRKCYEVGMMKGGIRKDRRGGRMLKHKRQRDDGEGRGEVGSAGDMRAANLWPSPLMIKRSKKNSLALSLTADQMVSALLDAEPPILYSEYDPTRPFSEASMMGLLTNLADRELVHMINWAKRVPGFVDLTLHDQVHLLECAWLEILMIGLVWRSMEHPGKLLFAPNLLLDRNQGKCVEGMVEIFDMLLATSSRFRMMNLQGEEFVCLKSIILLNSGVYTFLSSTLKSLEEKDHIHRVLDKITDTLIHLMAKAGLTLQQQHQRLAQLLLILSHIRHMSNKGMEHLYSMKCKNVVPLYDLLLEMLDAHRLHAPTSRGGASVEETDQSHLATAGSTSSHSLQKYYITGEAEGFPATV
Procedure, shortened: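 ECC-1 cells in hormone-depleted medium treated with compounds for 3 days, without E2 (agonist mode) or with 500 pM E2 (antagonist mode). AP activity read at 405 nm after p-nitrophenyl phosphate substrate, 40 min at 42 °C. Signal normalized to 500 pM E2 alone.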

SMILES	Activity (estrogen receptor modulation, e.g., agonism and antagonism)
C[C@@H]1Cc2c([nH]c3ccccc23)[C@@H](c2cc(F)c3oc(CN4CC(CF)C4)nc3c2)N1CC(F)(F)CO [Compound I-81, 2,2-difluoro-3-[(1R,3R)-1-[7-fluoro-2-[[3-(fluoromethyl)azetidin-1-yl]methyl]-1,3-benzoxazol-5-yl]-3-methyl-1,3,4,9-tetrahydropyrido[3,4-b]indol-2-yl]propan-1-ol]	+ (estrogen receptor agonism having (i) at least 80% increase in the E2-normalized signal in the AP assay (agonist mode) and (ii) no more than 80% reduction in the E2-normalized signal in the AP assay (antagonist mode))
C[C@@H]1Cc2c([nH]c3ccccc23)[C@@H](c2ccc3oc(C4CN(CCCF)C4)nc3c2)N1CC(C)(C)F [Compound I-82, 5-[(1R,3R)-2-(2-fluoro-2-methyl-propyl)-3-methyl-1,3,4,9-tetrahydropyrido[3,4-b]indol-1-yl]-2-[1-(3-fluoropropyl)azetidin-3-yl]-1,3-benzoxazole]	+ (estrogen receptor agonism having (i) at least 80% increase in the E2-normalized signal in the AP assay (agonist mode) and (ii) no more than 80% reduction in the E2-normalized signal in the AP assay (antagonist mode))
C[C@@H]1Cc2c([nH]c3ccccc23)[C@@H](c2ccc3[nH]c(CN4CC5(CC(F)C5)C4)cc3c2)N1CC(C)(C)F [Compound I-87, (1R,3R)-1-(2-((6-fluoro-2-azaspiro[3.3]heptan-2-yl)methyl)-1H-indol-5-yl)-2-(2-fluoro-2-methylpropyl)-3-methyl-2,3,4,9-tetrahydro-1H-pyrido[3,4-b]indole]	+ (estrogen receptor agonism having (i) at least 80% increase in the E2-normalized signal in the AP assay (agonist mode) and (ii) no more than 80% reduction in the E2-normalized signal in the AP assay (antagonist mode))
C[C@@H]1Cc2c([nH]c3ccccc23)[C@@H](c2ccc3[nH]c(CN4CC(F)C4)cc3c2)N1CC(C)(C)F [Compound I-90, (1R,3R)-1-[2-[(3-fluoroazetidin-1-yl)methyl]-1H-indol-5-yl]-2-(2-fluoro-2-methyl-propyl)-3-methyl-1,3,4,9-tetrahydropyrido[3,4-b]indole]	+ (estrogen receptor agonism having (i) at least 80% increase in the E2-normalized signal in the AP assay (agonist mode) and (ii) no more than 80% reduction in the E2-normalized signal in the AP assay (antagonist mode))
CCC1CN(Cc2cc3cc([C@@H]4c5[nH]c6ccccc6c5C[C@@H](C)N4CC(C)(C)F)ccc3[nH]2)C1 [Compound I-91, (1R,3R)-1-[2-[(3-ethylazetidin-1-yl)methyl]-1H-indol-5-yl]-2-(2-fluoro-2-methyl-propyl)-3-methyl-1,3,4,9-tetrahydropyrido[3,4-b]indole]	+ (estrogen receptor agonism having (i) at least 80% increase in the E2-normalized signal in the AP assay (agonist mode) and (ii) no more than 80% reduction in the E2-normalized signal in the AP assay (antagonist mode))
C[C@@H]1Cc2c([nH]c3ccccc23)[C@@H](c2ccc3[nH]c(CN4CC(C)(C)C4)cc3c2)N1CC(C)(C)F [Compound I-92, (1R,3R)-1-[2-[(3,3-dimethylazetidin-1-yl)methyl]-1H-indol-5-yl]-2-(2-fluoro-2-methyl-propyl)-3-methyl-1,3,4,9-tetrahydropyrido[3,4-b]indole]	+ (estrogen receptor agonism having (i) at least 80% increase in the E2-normalized signal in the AP assay (agonist mode) and (ii) no more than 80% reduction in the E2-normalized signal in the AP assay (antagonist mode))
C[C@@H]1Cc2c([nH]c3ccccc23)[C@@H](c2ccc3[nH]c(CO)cc3c2)N1CC(C)(C)F [Compound I-93, [5-[(1R,3R)-2-(2-fluoro-2-methyl-propyl)-3-methyl-1,3,4,9-tetrahydropyrido[3,4-b]indol-1-yl]-1H-indol-2-yl]methanol]	+ (estrogen receptor agonism having (i) at least 80% increase in the E2-normalized signal in the AP assay (agonist mode) and (ii) no more than 80% reduction in the E2-normalized signal in the AP assay (antagonist mode))
COC1CN(Cc2cc3cc([C@@H]4c5[nH]c6ccccc6c5C[C@@H](C)N4CC(C)(C)F)ccc3[nH]2)C1 [Compound I-94, (1R,3R)-2-(2-fluoro-2-methyl-propyl)-1-[2-[(3-methoxyazetidin-1-yl)methyl]-1H-indol-5-yl]-3-methyl-1,3,4,9-tetrahydropyrido[3,4-b]indole]	+ (estrogen receptor agonism having (i) at least 80% increase in the E2-normalized signal in the AP assay (agonist mode) and (ii) no more than 80% reduction in the E2-normalized signal in the AP assay (antagonist mode))
CC(C)C1CN(Cc2cc3cc([C@@H]4c5[nH]c6ccccc6c5C[C@@H](C)N4CC(C)(C)F)ccc3[nH]2)C1 [Compound I-95, (1R,3R)-2-(2-fluoro-2-methyl-propyl)-1-[2-[(3-isopropylazetidin-1-yl)methyl]-1H-indol-5-yl]-3-methyl-1,3,4,9-tetrahydropyrido[3,4-b]indole]	+ (estrogen receptor agonism having (i) at least 80% increase in the E2-normalized signal in the AP assay (agonist mode) and (ii) no more than 80% reduction in the E2-normalized signal in the AP assay (antagonist mode))
C[C@@H]1Cc2c([nH]c3ccccc23)[C@@H](c2ccc3[nH]c(CN4CC(CC#N)C4)cc3c2)N1CC(C)(C)F [Compound I-98, 2-[1-[[5-[(1R,3R)-2-(2-fluoro-2-methyl-propyl)-3-methyl-1,3,4,9-tetrahydropyrido[3,4-b]indol-1-yl]-1H-indol-2-yl]methyl]azetidin-3-yl]acetonitrile]	++ (estrogen receptor antagonism having (i) between 10% and 80% increase in the E2-normalized signal in the AP assay (agonist mode) and (ii) between 10% and 80% reduction in the E2-normalized signal in the AP assay (antagonist mode))
C[C@@H]1Cc2c([nH]c3ccccc23)[C@@H](c2ccc3[nH]c(CN4CC(N(C)C)C4)cc3c2)N1CC(C)(C)F [Compound I-99, 1-[[5-[(1R,3R)-2-(2-fluoro-2-methyl-propyl)-3-methyl-1,3,4,9-tetrahydropyrido[3,4-b]indol-1-yl]-1H-indol-2-yl]methyl]-N,N-dimethyl-azetidin-3-amine]	++ (estrogen receptor antagonism having (i) between 10% and 80% increase in the E2-normalized signal in the AP assay (agonist mode) and (ii) between 10% and 80% reduction in the E2-normalized signal in the AP assay (antagonist mode))
C[C@@H]1Cc2c([nH]c3ccccc23)[C@@H](c2ccc3[nH]c(CN4CC(C(F)F)C4)cc3c2)N1CC(C)(C)F [Compound I-100, (1R,3R)-1-[2-[[3-(difluoromethyl)azetidin-1-yl]methyl]-1H-indol-5-yl]-2-(2-fluoro-2-methyl-propyl)-3-methyl-1,3,4,9-tetrahydropyrido[3,4-b]indole]	++ (estrogen receptor antagonism having (i) between 10% and 80% increase in the E2-normalized signal in the AP assay (agonist mode) and (ii) between 10% and 80% reduction in the E2-normalized signal in the AP assay (antagonist mode))
C[C@@H]1Cc2c([nH]c3ccccc23)[C@@H](c2ccc3[nH]c(CN4CC(F)(F)C4)cc3c2)N1CC(C)(C)F [Compound I-101, (1R,3R)-1-[2-[(3,3-difluoroazetidin-1-yl)methyl]-1H-indol-5-yl]-2-(2-fluoro-2-methyl-propyl)-3-methyl-1,3,4,9-tetrahydropyrido[3,4-b]indole]	++ (estrogen receptor antagonism having (i) between 10% and 80% increase in the E2-normalized signal in the AP assay (agonist mode) and (ii) between 10% and 80% reduction in the E2-normalized signal in the AP assay (antagonist mode))
C[C@@H]1Cc2c([nH]c3ccccc23)[C@@H](c2ccc3[nH]c(CN4CC(C)(F)C4)cc3c2)N1CC(C)(C)F [Compound I-102, (1R,3R)-1-[2-[(3-fluoro-3-methyl-azetidin-1-yl)methyl]-1H-indol-5-yl]-2-(2-fluoro-2-methyl-propyl)-3-methyl-1,3,4,9-tetrahydropyrido[3,4-b]indole]	++ (estrogen receptor antagonism having (i) between 10% and 80% increase in the E2-normalized signal in the AP assay (agonist mode) and (ii) between 10% and 80% reduction in the E2-normalized signal in the AP assay (antagonist mode))
C[C@@H]1Cc2c([nH]c3ccccc23)[C@@H](c2ccc3sc(CN4CC(CF)C4)nc3c2)N1CC(C)(C)F [Compound I-103, 2-[[3-(fluoromethyl)azetidin-1-yl]methyl]-5-[(1R,3R)-2-(2-fluoro-2-methyl-propyl)-3-methyl-1,3,4,9-tetrahydropyrido[3,4-b]indol-1-yl]-1,3-benzothiazole]	+ (estrogen receptor agonism having (i) at least 80% increase in the E2-normalized signal in the AP assay (agonist mode) and (ii) no more than 80% reduction in the E2-normalized signal in the AP assay (antagonist mode))
